Paper PMC9354565 (The journal of physical chemistry. B, 2022)
“And” between values parts separate entries of the source, which are not always exact repeats. Equal values may be shown once. Read-outs that look alike come from different tables or passages of the source.

Tests used:
[1] = pH measurement of probes in the HTRF assay buffer; format: physicochemical; conditions: for pH value of probe in the buffer: 30 mM probe; for pH value of the buffer with BZA: Figure 6C
[2] = reported data, no reference given; cited from earlier work
[3] = solubility observed in the HTRF screening; format: physicochemical; conditions: at 10 mM in the HTRF assay
ST2 (Homo sapiens) = ST2 (Homo sapiens) (UniProt Q01638); experiment: BLI; conditions: cited from earlier work
[4] = molecular target: T1, recombinant human ST2-Fc-Histag (human, UniProt Q01638 19-328); experiment: AlphaScreen or HTRF
T1 sequence (looked up): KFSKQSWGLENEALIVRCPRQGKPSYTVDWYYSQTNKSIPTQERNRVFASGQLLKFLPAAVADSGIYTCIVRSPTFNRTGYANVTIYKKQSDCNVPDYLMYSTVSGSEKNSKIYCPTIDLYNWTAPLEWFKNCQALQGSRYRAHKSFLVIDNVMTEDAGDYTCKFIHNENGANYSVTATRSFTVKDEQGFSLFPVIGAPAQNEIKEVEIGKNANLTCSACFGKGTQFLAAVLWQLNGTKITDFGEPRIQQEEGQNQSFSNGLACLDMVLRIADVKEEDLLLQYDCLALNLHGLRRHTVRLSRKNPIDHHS

[5] = molecular target: T1, recombinant human ST2-Fc-Histag; experiment: AlphaScreen or HTRF; remark: listed apart in the source

NCc1cccnc1 [AMP, 3-(aminomethyl)pyridine]
pH value of probe in the buffer [1]: 9.4
pKa [2]: 8.34

N=C(N)c1ccccc1 [BZA, benzamidine]
pH value of the buffer with BZA ([1]; 0.12 mM BZA): 7.5
pH value of the buffer with BZA ([1]; 3.3 mM BZA): 10.1
pH value of the buffer with BZA ([1]; 30 mM BZA): 10.8
pH value of probe in the buffer [1]: 10.5

O=C(O)c1ccc2ccccc2c1O [Compound 1]
solubility [3]: poor solubility

O=C(O)c1cccnc1 [NA, nicotinic acid]
pH value of probe in the buffer [1]: 5.1

NC(=O)c1cccnc1 [NAM, nicotinamide]
pH value of probe in the buffer [1]: 7.2

O=C(O)c1ccccc1O [SA, salicylic acid]
pH value of probe in the buffer [1]: 4.1

IL33 (from UniProt O95760)
Kd (ST2 (Homo sapiens)): 2.23 nM

B1: recombinant human IL33, un-biotinylated (ligand)
chain: SITGISPITEYLASLSTYNDQSITFALEDESYEIYVEDLKKDEKKDKVLLSYYESQHPSNESGDGVDGKMLMVTLSPTKDFWLHANNKEHSVELHKCEKPLPDQAFFVLHNMHSNCVSFECKTDPGVFIGVKDNHLALIKVDSSENLCTENILFKLSET
IC50 [4]: 2.25 ± 0.98 nM
IC50 of one of two independent measurements [4]: 2.94 nM and 1.5 nM
IC50 [5]: 3.7 ± 0.29 nM
IC50 of one of two independent measurements [5]: 3.49 nM and 3.9 nM
